Results on three compounds are retold here after patent US20230346792A1, “COMPOSITIONS AND METHODS FOR TREATING LUNG INFLAMMATION” (Hoth Therapeutics, Inc., priority 2020, published 2023).

SMILES strings stand for the structures.

One data set concerns Covid-19 patients. Briefly: Randomized double-blind placebo-controlled clinical study of aprepitant injectable emulsion in Covid-19 positive patients. Type of data set: in vivo, human. To be noted: aprepitant injectable emulsion (e.g., Cinvanti) daily (QD), 14 days, comparator saline placebo, including severe to critical patients.
Data set [1] deals with nociception induced by capsaicin (TRPV1) or AITC (TRPA1). To be noted: capsaicin (via TRPV1) or AITC (via TRPA1), rat peritoneum; cited from earlier work.
The test system of data set [2] is NSCLC squamous cell carcinoma. The note with it: one patient with history of COPD and NSCLC squamous cell carcinoma; aprepitant combined with radiotherapy; cited from earlier work.
Another data set addresses T1, NK1R (Rattus norvegicus, UniProt P14600).
T1 construct: host or cells: living animal of an asthma model (endogenous receptor)
To be noted: asthma model; cited from earlier work.

Another data set deals with T2, Neurokinin-1 receptor (Homo sapiens, UniProt P25103).
T2 construct: host or cells: treated subjects (endogenous receptor)
T2 sequence (P25103 whole entry): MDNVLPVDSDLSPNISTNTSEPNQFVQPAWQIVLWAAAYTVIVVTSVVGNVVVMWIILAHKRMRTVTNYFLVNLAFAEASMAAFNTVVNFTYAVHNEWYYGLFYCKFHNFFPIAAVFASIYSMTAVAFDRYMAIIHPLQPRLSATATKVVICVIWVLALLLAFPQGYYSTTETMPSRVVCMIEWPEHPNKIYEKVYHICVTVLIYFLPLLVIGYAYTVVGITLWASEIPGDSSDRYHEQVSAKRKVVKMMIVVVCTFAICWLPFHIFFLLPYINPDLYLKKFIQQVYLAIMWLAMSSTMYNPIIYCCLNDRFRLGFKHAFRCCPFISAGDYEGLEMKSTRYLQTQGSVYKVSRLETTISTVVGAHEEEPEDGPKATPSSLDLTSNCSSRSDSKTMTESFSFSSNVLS
To be noted: lung cancer; cited from earlier work.

For data set [3] the following is noted: in vivo; cited from earlier work.

T1 sequence (P14600 whole entry): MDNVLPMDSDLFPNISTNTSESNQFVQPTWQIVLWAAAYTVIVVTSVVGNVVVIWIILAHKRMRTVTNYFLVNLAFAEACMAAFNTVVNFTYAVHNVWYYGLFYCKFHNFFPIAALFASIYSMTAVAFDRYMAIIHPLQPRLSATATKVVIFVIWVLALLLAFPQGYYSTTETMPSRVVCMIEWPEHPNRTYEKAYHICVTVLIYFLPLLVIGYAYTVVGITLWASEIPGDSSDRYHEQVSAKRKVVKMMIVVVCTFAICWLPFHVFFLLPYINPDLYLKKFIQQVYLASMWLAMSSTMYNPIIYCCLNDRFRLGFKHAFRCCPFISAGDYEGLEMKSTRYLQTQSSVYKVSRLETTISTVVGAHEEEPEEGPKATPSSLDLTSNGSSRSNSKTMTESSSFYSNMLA
Excerpt for Covid-19 patients: One group of patients receives saline placebo daily for a desirable period of time (e.g., 14 days) with normal management and care, and the other group of patients receives aprepitant injectable emulsion (e.g., Cinvanti®) daily (QD) during the same period of time (e.g., 14 days).

In the case of `C[C@@H](O[C@H]1OCCN(Cc2nc(=O)[nH][nH]2)[C@H]1c1ccc(F)cc1)c1cc(C(F)(F)F)cc(C(F)(F)F)c1` [aprepitant], the “effectiveness in treating Covid-19 patients versus placebo” value in the data set with Covid-19 patients was “more effective in treating Covid-19 patients”. The “nociception induced by capsaicin or AITC” value in data set [1] is “able to reduce nociception”. The “treatment outcome of lung cancer patient” value in data set [2] is “successfully treated”. For the same compound, on NK1R, the “lung inflammation and inflammatory cytokines” value is “reduced lung inflammation and inflammatory cytokines”. Besides, the cough frequency entry on Neurokinin-1 receptor was “reduction in cough frequency”.

For the compound `C#Cc1cccc(Nc2ncnc3cc(OCCOC)c(OCCOC)cc23)c1` [erlotinib], in data set [3], the “adverse effects of chronic treatment” value was “induces hypomagnesemia, thereby triggering SP-mediated oxidative/inflammation stress and mild-to-moderate cardiac dysfunction”.

On to `C=C(C)[C@]12C[C@@H](C)[C@@]34O[C@](Cc5ccccc5)(O[C@@H]1[C@@H]3C=C(COC(=O)Cc1ccc(O)c(OC)c1)C[C@]1(O)C(=O)C(C)=C[C@@H]41)O2` [resiniferatoxin], for which, in data set [1], the “nociception induced by capsaicin or AITC” value is given as “able to reduce nociception”.
